Patent EP0462621A2, “Use of particular compounds for manufacture of pharmaceutical formulations for treatment against various parasites, mycoplasmas, other indications and other infections” (Prendergast, Patrick Thomas, priority 1990, dated 1991)

How the values were obtained:
81-66-45 Cells = assay: Cytotoxicity on uninfected 81-66-45 cells, 10 days continuous exposure; assay type: cell-based; conditions: read-out: ID50 - The concentration of IPA which kills 50% of the cells
Method: The "Percent Dead Cells" are taken from Tables la(d) (iii) and la(d) (v) using the 10-day value, and the therapeutic index have been calculated for each drug concentration. The results of IPA are also graphed in Figures 16 and 17. Cytotoxicity (the dashed line) is calculated as the percent live cells.
The availability of toxicity data collected in the same time frame as required for determination of antiviral effectiveness allowed determination of values for two different cell lines. Figures 16 and 17 illustrate the curves obtained by plotting the cytotoxicity of IPA (as a percent of the control cell viability) versus the percent of inhibition of HIV-1 replication (as a percent of the control titer) when H9 and 81-66-45 cells were tested. The cytotoxicity data obtained with 10 days continuous exposure, using uninfected cells, were used since 10 days was the length of time required to carry out the infectivity test. As is apparent from Tables la-(d) (ii) - la(d) (v), toxicity is much lower when the drug is added to cells for one day and then removed, or when cells are exposed for only 1 or 4 days. It is difficult to mimic in-vivo exposure times, particularly if metabolites are more toxic than the parent compound and are readily cleared in-vivo but not in-vitro.

T. cruzi = T. cruzi epimastigote (EPI) in-vitro screen; assay type: cell-based
Method: In-vitro chemotherapy screens have for many years used models involving three stages of the T. cruzi life cycle: • (1) Epimastigote. Dividing populations are easily cultivated in a range of defined and semi-defined media, but are equivalent to a vector stage of the life cycle. • (2) Trypomastigote. These are isolated from a rodent host and can be maintained as a non-dividing population for 24-48 h in media. • (3) Amastigote. Dividing populations can be cultivated in muscle cells, fibroblasts and macrophages, following infection with trypomastigotes. After the initial infection, there is normally a period of 4-5 days during which the amastigotes divide before transforming, via the epimastigote stage, back to trypomastigotes which escape from the cell. Drug activity is measured during this 4-5 day period. A dividing host cell population, low infection rate, and the presence of trypomastigotes in the overlay can complicate the interpretation of results.

HIV-1 = assay: Experiment la(1): HIV-1 infected 81-66-45 cells; assay type: cell-based
L major/L mexicana = assay: Leishmania mouse/hamster models, in-vivo; conditions: Lm. Further: key: - no/poor activity,; + fair/moderate activity,; ++ good/excellent activity.
Source text: (§1) In-vitro and in-vivo models were used to test activities of a selection of many compounds. Those activities are summarized in Tables 1-3, showing variation between systems and species. Activities measured in the MP mo and HM mo models have shown the best correlation with results obtained in hamster and mouse models.

L donovani = assay: Leishmania mouse/hamster models, in-vivo; conditions: Ld. Further: key: - no/poor activity,; + fair/moderate activity,; ++ good/excellent activity.
Source text: as §1

Monocytes = assay: Experiment la(f): monocyte spontaneous migration (agarose droplet); assay type: cell-based, human; conditions: for Total Area (mm^2) Migration: Table Ia(f)(ii)
Method: Monocytes from each human donor were incubated for 30 minutes with three different dose levels of compound la in triplicate. These cells were added to agarose and droplets of agarose containing cells were added to small chambers. A chemotaxis agent was added to induce enhanced migration of the mononuclear cells. The detailed assay procedures are described below.
Cell migration patterns of triplicates within 30% of each other were generally accepted.
• 1. Add 6 ml Phosphate Buffered Saline (PBS) 2X to 7 ml of Percoll. • 2. Add mixture to 15 ml polycarbonate centrifuge tubes (Sorvall ^*03243, 18 x 100 mm, pt. ^*00770 50/box, w/caps). ' • 3. Centrifuge tubes at 21,000 x g for 45 minutes (Sorvall, RC2-B centrifuge w/SS-34 rotor, 34 fixed angle, -15,000 rpm w/Drake off @ 4 C). Percoll gradient is good for two weeks. • 4. Mononuclear cells are separated from whole blood by differential centrifugation using a synthetic separation medium. • 5. Cells are washed 2X with Basal Salt Solution (BSS). • 6. Resuspend cells in BSS + 10% BCS, then add mixture to 50 ml centrifuge tubes containing 30-40 ml of Bovine Calf Serum (BCS) and centrifuge at 400 x g for 10 minutes. • 7. Resuspend cells in BSS without BCS. • 8. Determine viable cell number. • 9. Adjust concentration of cells to […]. • 10. Carefully layer 2 ml of cells on top of Percoll gradient. Centrifuge tubes at 100 x g for 20 minutes at 4°C with brake off. • 11. Monocyte layer is harvested with a pasteur pipet and aliquoted into a 50 ml centrifuge tube. Dead cells are in the top band. Monocytes are about 5 ml above middle gradient. Lymphocytes are about 5 ml below middle gradient. […] Wash cells 3X in BSS without BCS. • 13. Resuspend cells in desired media. • 14. Perform esterase stain on monocyte cell suspension to determine ratio of monocytes. Ratio ranges from 50 - 80%.
• 1. A 0.4% solution of Agarose (Seakem HE) and distilled H20 is prepared, aliquoted into 1 dram vials, autoclaved and stored at 4° C until used. • 2. A suspension of […] cells in Media 199 2X containing glutamine 2mM, gentamicin 50 µg/ml and bovine calf serum-heat inactivated (56° C, […]) 20%, is combined with an equal amount of 0.4% Agarose. • 3. A 5 µl droplet of cell/agarose mixture is added to the centre of a Sterilin plate (Surrey, England). • 4. A 2 µl droplet of agarose/media mixture is added 3-5mm to one side of the cell/agarose droplet and a 2 µl droplet of agarose/chemo-attractant (N-formyl-L-methionyl-L-Leucyl-L-Phenylalanine 10^-4 M(F-Met-Leu-Phe)) is added 3-5mm to the other side of the cell/agarose droplet. • 5. The droplets are allowed to solidify, after which 0.5 ml of RPMI-1640 containing glutamine 2mM, gentamicin 50, µg/ml and bovine calf serum 10% is added to the well. A cover slip is then placed over the well. • 6. The plate is incubated at 37° C, 5% C02/air humified for approximately 18 hours. • 7. The plate is removed from the incubator and the distance the cells have moved towards the media control and the chemoattractant droplets is traced and measured.

PBL = assay: Growth of PBL following cocultivation of patient's lymphocytes with PHA-PBL; assay type: cell-based, human; conditions: 30 u.M or lower; up to 10 days in culture

In the case of `CC(C)=CCNc1ncnc2c1ncn2[C@@H]1O[C@H](CO)[C@@H](O)[C@H]1O` [IPA, N^6-(Δ^2-isopentenyl) adenosine], the CC50 (81-66-45 Cells) is reported as 40 µM, the “activity, EPI” value (T. cruzi; T. cruzi strain MR) is reported as “++(Y,MR, Sonya)” and the “activity, EPI” value (T. cruzi; T. cruzi strain Sonya) is reported as “++(Y,MR, Sonya)”. For the same compound, the “activity, EPI” value (T. cruzi; T. cruzi strain Y) was “++(Y,MR, Sonya)”, the IC50 (HIV-1; Human immunodeficiency virus 1, from Figures 16 and 17, read-out: IC50 - The concentration of IPA which inhibits the replication of HIV-1 by 50%) was 6 µM and the IC90 (HIV-1; Human immunodeficiency virus 1, from Figures 16 and 17, read-out: IC90 - The concentration of IPA which inhibits the replication of HIV-1 by 90%) was 10 µM. For the same compound, the “Activity, mouse/ hamster models” value (L major/L mexicana) was “-”, the “Activity, mouse/ hamster models” value (L donovani) was “+” and the “reduction in spontaneous migration” value (Monocytes; 30 µM) was 15%. For the same compound, the spontaneous migration (Monocytes; 0.1 - 0.3 µM) was “Enhanced spontaneous migration”, the “reduction in the ability of the monocytes to spontaneously migrate” value (Monocytes; 100 - 1000 µM) was 22-37% and the “Total Area (mm^2) Migration” value (Monocytes; IPA 5 µM, media 9085) was 7952 mm^2. For the same compound, the “Total Area (mm^2) Migration” value (Monocytes; IPA 10 µM, media 9085) was 6846 mm^2, the “Total Area (mm^2) Migration” value (Monocytes; IPA 15 µM, media 9085) was 6300 mm^2 and the “Total Area (mm^2) Migration” value (Monocytes; IPA 20 µM, media 8732) was 6804 mm^2. For the same compound, the “Total Area (mm^2) Migration” value (Monocytes; IPA 25 µM, media 8732) was 6435 mm^2, the “Total Area (mm^2) Migration” value (Monocytes; IPA 30 µM, media 8732) was 5795 mm^2 and the “cytotoxic effect on the growth of viable PHA stimulated PBL” value (PBL) was “did not have any significant cytotoxic effect”.
